Measured values from patent US20230310554A1 (priority 2020, published 2023).
Where “and” joins values, the source holds several entries; their conditions need not be identical. Identical values can stand only once.

Key:
PC-12 cells = format: cell-based, rat; details: for EC50: read-out: EC50 of cyanide under existence of each antidote
[1] = tested on: cyanide poisoning mouse models; parameters: species or system mouse (ddY); details: in vivo
[2] = tested on: cyanide poisoning mouse models; parameters: species or system mouse (ddY); details: in vivo; remark: listed apart in the source
[3] = tested on: plasma proteins such as haptocorrin; details: cited from earlier work
[4] = tested on: cyanide poisoning mouse models; parameters: species or system mouse (ddY); details: in vivo; remark: listed apart in the source

## O=S([O-])([O-])=S.[Na+].[Na+] [Na2S2O3, sodium thiosulfate]
PC-12 cells
  cell viability compared with the control group to which only NaCN had been added: had no effects
  EC50: 9.98 mM and 12.5 mM and 12.1 mM and 10.4 mM and 10.7 mM

## C/C1=C2/[N-][C@H]([C@H](CC(N)=O)[C@@]2(C)CCC(=O)NC[C@@H](C)OP(=O)([O-])O[C@H]2[C@@H](O)[C@@H](n3cnc4cc(C)c(C)cc43)O[C@@H]2CO)[C@]2(C)N=C(/C(C)=C3N=C(/C=C4N=C1[C@@H](CCC(N)=O)C\4(C)C)[C@@H](CCC(N)=O)[C@]\3(C)CC(N)=O)[C@@H](CCC(N)=O)[C@]2(C)CC(N)=O.[Co+3].[OH-] [OHCbl, hydroxocobalamin]
[1]
  survival rate: 90% and 70% and 60%
PC-12 cells
  cell viability compared with the control group to which only NaCN had been added: high survival rate
[2]
  mice survived: 50%
[3]
  reduction of antidotal ability by binding to plasma proteins: 1/600
[4]
  time required until the recovery (coma to awakening): 4.8 min and 4.6 min

## metHb: methemoglobin produced by oxidizing OxyHb with sodium nitrite
PC-12 cells
  cell viability compared with the control group to which only NaCN had been added: significantly high survival rate
  EC50: 23.3 mM and 28.8 mM and 31.1 mM and 19.1 mM
